Experimental data from patent publication US7879876B2, “Sulfonamide derivatives and use thereof for the modulation of metalloproteinases” (Merck Serono SA, priority 2005, dated 2011).
Where a name gives a salt, the structure may show the parent alone.

How the values were obtained:
Format in all cases: biochemical
gelatinase A (MMP-2) = molecular target: T1, gelatinase A (MMP-2) (Homo sapiens, UniProt P08253); test: MMP-2 enzyme inhibition assay (coumarin-labelled peptide substrate); conditions: read-out: IC50 MMP2
T1 sequence (P08253 110-660): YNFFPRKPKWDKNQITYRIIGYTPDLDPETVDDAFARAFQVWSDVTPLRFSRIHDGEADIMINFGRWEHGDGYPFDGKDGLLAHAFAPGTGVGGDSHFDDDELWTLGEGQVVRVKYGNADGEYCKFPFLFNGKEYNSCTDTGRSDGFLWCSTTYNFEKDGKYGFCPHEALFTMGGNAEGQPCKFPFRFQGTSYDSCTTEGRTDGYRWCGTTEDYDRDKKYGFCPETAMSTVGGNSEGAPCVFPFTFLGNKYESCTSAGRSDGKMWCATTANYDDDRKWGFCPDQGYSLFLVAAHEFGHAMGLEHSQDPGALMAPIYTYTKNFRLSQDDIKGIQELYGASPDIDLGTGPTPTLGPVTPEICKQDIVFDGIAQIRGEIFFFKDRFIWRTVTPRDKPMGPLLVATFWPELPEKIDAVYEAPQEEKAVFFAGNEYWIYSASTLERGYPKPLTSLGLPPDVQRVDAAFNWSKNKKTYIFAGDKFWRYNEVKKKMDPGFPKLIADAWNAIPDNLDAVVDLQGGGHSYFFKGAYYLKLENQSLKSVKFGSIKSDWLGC
Experimental: Compounds of the invention were tested to assess their activities as inhibitors of MMP-1, MMP-2, MMP-9, MMP-14, MMP-12 and TACE. MMP-9 Assay Protocol […]
(§1) Stock solutions were made up as follows: Assay Butter: 100 mM Tris-HCl pH 7.6 containing 100 mM NaCl, 10 mM CaCl2, and 0.05% Brij 35.
Substrate: 0.4 mM McaPLGLDpaAR (from Bachem) (0.437 mg/ml) stock solution in 100% DMSO (stored at −20° C.). Dilute to 8 μM in assay butter. […]
(§2) Test Compounds were prepared initially as 10 mM compound solution in 100% DMSO, diluted to 1 mM in 100% DMSO, then serially diluted 3-fold in 100% DMSO across columns 1-10 of a 96-well microtitre plate Assay concentration range, 100 μM (column 1) to 5.1 nM (column 10).
(§3) The assay was performed in a total volume of 100 μL per well in 96-well microtitre plates. Activated enzyme (20 μL) was added to the wells followed by 20 μL of assay butter. Appropriate concentrations of test compounds dissolved in 10 μL of DMSO were then added followed by 50 μL of McaPLGLDpaAR (8 μM, prepared by dilution of DMSO stock in assay butter). For each as say ten concentrations of test compound were examined in duplicate. Control wells lack either enzyme or test compound. The reactions were incubated at 37° C. for 2 hours. The fluorescence at 405 nm was measured immediately with an SLT Fluostar fluorometer (SL T Labinstruments GmbH, Grödig, Austria) using 320 nm excitation, without stopping the reaction.
(§4) The effect of the test compound was determined from the dose response curve generated by the 10 duplicate concentrations of inhibitor. The IC50 (the concentration of compound required to give a 50% decrease in enzyme activity) was obtained by fitting data to the equation, Y=a+((b−a)/(1+(c/X)^d)). (Y=inhibition achieved for a particular dose; X=the dose in nM; a=minimum y or zero % inhibition; b=maximum y or 100% inhibition; c=is the IC50; d=is the slope). The result was rounded to one significant figure.
(§5) Compounds of the invention were tested for inhibitory activity against gelatinase A (MMP-2) in an assay using a coumarin-labelled peptide substrate, (7-methoxycoumarin-4-yl)acetyl-Pro-Leu-Gly-Leu-(3-[2,4-dinitrophenyl]-L-2,3diaminopropionyl)-Ala-Arg-NH2 (Mca PLGLDpaAR) (Knight et al, 1992, above). The protocol for this assay was as described for the MMP-9 assay above.

metalloelastase (MMP-12) = metalloelastase (MMP-12) (Homo sapiens, UniProt P39900); test: MMP-12 enzyme inhibition assay (coumarin-labelled peptide substrate); conditions: read-out: IC50 MMP12
Sequence of metalloelastase (MMP-12) (P39900 106-470): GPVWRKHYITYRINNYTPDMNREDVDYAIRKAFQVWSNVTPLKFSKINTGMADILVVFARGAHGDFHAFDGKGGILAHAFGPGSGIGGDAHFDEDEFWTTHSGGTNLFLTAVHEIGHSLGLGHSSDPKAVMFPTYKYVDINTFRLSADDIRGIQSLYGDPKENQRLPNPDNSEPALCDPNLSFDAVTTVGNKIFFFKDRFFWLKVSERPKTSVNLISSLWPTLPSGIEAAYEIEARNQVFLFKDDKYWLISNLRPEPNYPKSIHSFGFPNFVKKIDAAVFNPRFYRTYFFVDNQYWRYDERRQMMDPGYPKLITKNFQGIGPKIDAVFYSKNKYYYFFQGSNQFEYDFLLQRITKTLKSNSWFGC
Experimental: (§6) Compounds of the invention were tested to assess their activities as inhibitors of MMP-1, MMP-2, MMP-9, MMP-14, MMP-12 and TACE. MMP-9 Assay Protocol
(§7) Compounds of the invention were tested for inhibitory activity against 92 kDa gelatinase (MMP-9) in an assay using a coumarin-labeled peptide substrate, (7-methoxycoumarin-4-yl)acetyl-Pro-Leu-Gly-Leu-(3-[2,4-dinitrophenyl]-L-2,3diaminopropionyl)-Ala-Arg-NH2 (McaPLGLDpaAR) (Knight et al, FEBS Lett. 1992; 263-266).
as §1
(§8) Substrate: 0.4 mM McaPLGLDpaAR (from Bachem) (0.437 mg/ml) stock solution in 100% DMSO (stored at −20° C.). Dilute to 8 μM in assay butter.
(§9) Enzyme: Recombinant human 92 kDa gelatinase (MMP-9; APMA (4-aminophenyl mercuric acetate)-activated if necessary) appropriately diluted in assay butter.
as §2, §3, §4
Compounds of the invention were tested for inhibitory activity against metalloelastase (MMP-12) in an assay using a coumarin-labelled peptide substrate, (7-methoxycoumarin-4-yl)acetyl-Pro-Leu-Gly-Leu-(3-[2,4-dinitrophenyl]-L-2,3-diaminopropionyl)-Ala-Arg-NH2 (McaPLGLDpaAR) (Knight et al, 1992, above). The protocol for this assay was as described for the MMP-9 assay above.

MMP-14 = MMP-14 (Homo sapiens, UniProt P50281); test: MMP-14 enzyme inhibition assay (coumarin-labelled peptide substrate); conditions: read-out: percentage inhibition MMP14
Experimental: as §6, §7, §1, §8, §9, §2, §3, §4
as §5, with “MMP-14” for “gelatinase A (MMP-2)”, “PLGLD paAR)” for “PLGLDpaAR)”

collagenase (MMP-1) = molecular target: T2, collagenase (MMP-1) (Homo sapiens, UniProt P03956); test: MMP-1 enzyme inhibition assay (coumarin-labelled peptide substrate); conditions: @ 5 μM; read-out: percentage inhibition MMP1
T2 sequence (P03956 100-469): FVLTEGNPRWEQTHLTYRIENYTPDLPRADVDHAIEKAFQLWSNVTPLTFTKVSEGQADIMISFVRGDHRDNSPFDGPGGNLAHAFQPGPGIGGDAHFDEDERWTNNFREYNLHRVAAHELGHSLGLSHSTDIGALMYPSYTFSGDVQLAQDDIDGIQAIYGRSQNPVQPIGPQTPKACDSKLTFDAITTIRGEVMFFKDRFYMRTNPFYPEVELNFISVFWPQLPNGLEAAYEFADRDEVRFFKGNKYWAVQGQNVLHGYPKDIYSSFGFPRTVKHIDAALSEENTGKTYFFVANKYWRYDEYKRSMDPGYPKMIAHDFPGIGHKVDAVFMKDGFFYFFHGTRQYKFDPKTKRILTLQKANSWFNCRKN
Experimental: as §6, §7, §1, §8, §9, §2, §3, §4
as §5, with “collagenase (MMP-1)” for “gelatinase A (MMP-2)”

[1] = molecular target: 92 kDa gelatinase (MMP-9) (Homo sapiens, UniProt P14780); test: MMP-9 enzyme inhibition assay (coumarin-labeled peptide substrate); conditions: read-out: IC50 MMP9
Sequence of 92 kDa gelatinase (MMP-9) (P14780 107-707 limits assumed): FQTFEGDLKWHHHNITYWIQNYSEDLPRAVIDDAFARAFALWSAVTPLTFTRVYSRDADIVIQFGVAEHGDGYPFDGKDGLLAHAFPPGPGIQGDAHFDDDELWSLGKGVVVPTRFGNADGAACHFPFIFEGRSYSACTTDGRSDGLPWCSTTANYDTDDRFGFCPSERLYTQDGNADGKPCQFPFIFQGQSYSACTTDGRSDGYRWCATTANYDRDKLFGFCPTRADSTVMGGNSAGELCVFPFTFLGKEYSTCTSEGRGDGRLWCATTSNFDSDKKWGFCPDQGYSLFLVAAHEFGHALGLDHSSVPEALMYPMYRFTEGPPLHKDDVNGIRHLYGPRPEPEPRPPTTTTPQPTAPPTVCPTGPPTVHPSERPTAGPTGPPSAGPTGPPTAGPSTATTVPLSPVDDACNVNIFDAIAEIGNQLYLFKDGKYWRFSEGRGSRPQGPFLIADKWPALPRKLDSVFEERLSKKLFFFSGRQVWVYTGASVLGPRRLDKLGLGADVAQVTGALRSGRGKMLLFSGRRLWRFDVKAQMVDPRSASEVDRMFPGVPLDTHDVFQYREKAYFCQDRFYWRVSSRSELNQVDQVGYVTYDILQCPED
Experimental: as §6, §7, §1, §8, §9, §2, §3, §4

MMP13 = MMP13 (Homo sapiens, UniProt P45452); test: MMP13 inhibition (Table 1); conditions: read-out: percentage inhibition MMP13

Row | SMILES | IC50 (gelatinase A (MMP-2)) [µM] | IC50 (metalloelastase (MMP-12)) [µM] | inhibition at 0.1 µM (MMP-14; @ 0.1 μM) [%] | inhibition at 5 µM (collagenase (MMP-1)) [%] | IC50 [1] [µM] | inhibition at 0.1 µM (MMP13) [%] | inhibition at 5 µM (MMP13; @ 5 μM) [%] | inhibition at 5 µM (MMP-14) [%]
1 | CC(C)(C)OC(=O)N1CCC[C@@H]1[C@H](CS(=O)(=O)N1CCc2cc(Cl)c(Cl)cc2C1)N(O)C=O (racemic) [Example 46, tert-butyl (2RS)-2-{(1RS)-2-[(6,7-dichloro-3,4-dihydro-isoquinolin-2(1H)-yl)sulfonyl]-1-[formyl(hydroxy)amino]ethyl}pyrrolidine-1-carboxylate] | ≥ 5 | 0.46 | 19 |  |  |  |  | 
2 | COc1cc2c(cc1OC)CN(S(=O)(=O)CC(C1CCCC1)N(O)C=O)CC2 (centres unmarked) [Example 15, N-{1-cyclopentyl-2-[(6,7-dimethoxy-3,4-dihydroisoquinolin-2(1H)-yl)sulfonyl]ethyl}-N-hydroxyformamide] | > 5 | 0.185 |  | 0 | > 5 |  |  | 0
3 | CCC(CC)C(CS(=O)(=O)N1CCc2cc(OC)c(OC)cc2C1)N(O)C=O (centres unmarked) [Example 17, N-(1-{[(6,7-dimethoxy-3,4-dihydroisoquinolin-2(1H)-yl)sulfonyl]methyl}-2-ethylbutyl)-N-hydroxyformamide] | > 5 | 0.103 |  | 0 | > 5 |  |  | 0
4 | COc1cc2c(cc1OC)CN(S(=O)(=O)CC(N(O)C=O)C(C)(C)C)CC2 (centres unmarked) [Example 20, N-(1-{[(6,7-dimethoxy-3,4-dihydroisoquinolin-2(1H)-yl)sulfonyl]methyl}-2,2-dimethylpropyl)-N-hydroxyformamide] | > 5 | 0.28 |  | 0 | > 5 |  |  | 0
5 | CC(C)CC(CS(=O)(=O)N1CCc2ccc(OC(C)C)cc2C1)N(O)C=O (centres unmarked) [Example 51, N-hydroxy-N-(1-{[(7-isopropoxy-3,4-dihydroisoquinolin-2(1H)-yl)sulfonyl]methyl}-3-methylbutyl)formamide] | 1.33 | 0.109 |  |  |  |  |  | 
6 | CC(C)(C)c1ccc2c(c1)CN(S(=O)(=O)CC(C1CCOCC1)N(O)C=O)CC2 (centres unmarked) [Example 66, N-[2-[(7-tert-butyl-3,4-dihydroisoquinolin-2(1H)-yl)sulfonyl]-1-(tetrahydro-2H-pyran-4-yl)ethyl]-N-hydroxyformamide] | > 5 | 0.209 |  |  |  |  |  | 
7 | CCOC(=O)C1CC1C(CS(=O)(=O)N1CCc2cc(OC)c(OC)cc2C1)N(O)C=O (centres unmarked) [Example 67, ethyl 2-[2-[(6,7-dimethoxy-3,4-dihydroisoquinolin-2(1H)-yl)sulfonyl]-1-[formyl(hydroxy)amino]ethyl]cyclopropanecarboxylate] | > 5 | 0.111 |  |  |  |  |  | 
8 | COc1cc2c(cc1OC)CN(S(=O)(=O)CC(C1CC1C(=O)O)N(O)C=O)CC2 (centres unmarked) [Example 71, 2-[2-[(6,7-dimethoxy-3,4-dihydroisoquinolin-2(1H)-yl)-sulfonyl]-1-[formyl(hydroxy)amino]ethyl]cyclopropanecarboxylic acid] | > 5 | 0.585 |  |  |  |  |  | 
9 | CC(C)Oc1ccc2c(c1)CN(S(=O)(=O)CC(C1CCCC1)N(O)C=O)CC2 (centres unmarked) [Example 78, N-{1-cyclopentyl-2-[(7-isopropoxy-3,4-dihydroisoquinolin-2(1H)-yl)sulfonyl]ethyl}-N-hydroxyformamide] | > 5 | 0.322 |  |  |  |  |  | 
10 | COc1cc2c(cc1OC)CN(S(=O)(=O)CC(C1CC1)N(O)C=O)CC2 (centres unmarked) [Example 84, N-{1-cyclopropyl-2-[(6,7-dimethoxy-3,4-dihydro-isoquinolin-2(1H)-yl)sulfonyl]ethyl}-N-hydroxyformamide] | > 5 | 0.366 |  |  |  |  |  | 

More lines, in order of falling IC50 (metalloelastase (MMP-12)), values ahead:

Row | IC50 (gelatinase A (MMP-2)) [µM] | IC50 (metalloelastase (MMP-12)) [µM] | inhibition at 0.1 µM (MMP-14; @ 0.1 μM) [%] | inhibition at 5 µM (collagenase (MMP-1)) [%] | IC50 [1] [µM] | inhibition at 0.1 µM (MMP13) [%] | inhibition at 5 µM (MMP13; @ 5 μM) [%] | inhibition at 5 µM (MMP-14) [%] | SMILES
11 | > 5 | 0.234 |  |  |  |  |  |  | CSCCC(CS(=O)(=O)N1CCc2ccc(C(C)(C)C)cc2C1)N(O)C=O (centres unmarked) [Example 54, N-[1-{[(7-tert-butyl-3,4-dihydroisoquinolin-2(1H)-yl)-sulfonyl]methyl}-3-(methylthio)propyl]-N-hydroxyformamide]
12 |  | 0.026 |  |  | > 5 | 15 |  |  | O=CN(O)C(CS(=O)(=O)N1CCc2ccccc2C1)c1cccnc1 (centres unmarked) [Example 11, N-[2-(3,4-dihydroisoquinolin-2(1H)-ylsulfonyl)-1-pyridin-3-ylethyl]-N-hydroxyformamide, hydrochloride salt]
13 | 0.784 | 0.018 |  | 31 | > 5 |  |  | 71 | O=CN(O)C(CS(=O)(=O)N1CCc2ccccc2C1)c1ccsc1 (centres unmarked) [Example 7, N-[2-(3,4-dihydroisoquinolin-2(1H)-ylsulfonyl)-1-(3-thienyl)ethyl]-N-hydroxyformamide]
14 | 0.759 | 0.016 |  | 32 | > 5 | 16 | 97 | 70 | O=CN(O)C(CS(=O)(=O)N1CCc2ccccc2C1)c1cccs1 (centres unmarked) [Example 5, N-[2-(3,4-dihydroisoquinolin-2(1H)-ylsulfonyl)-1-(2-thienyl)ethyl]-N-hydroxyformamide]
